# Measured values taken from patent publication US10954269B2, “Anti-inflammatory tripeptides” (Dr. August Wolff Gmbh & Co. KG Arzneimittel, priority 2013, dated 2021).
# [ ]: non-standard residue; d: D form.
# System: human keratinocyte cell line (HaCaT)
# Experiment: Cytokine secretion on protein level in activated human keratinocyte cell line HaCaT (13-plex FACS / Luminex, supernatant)
# Type: cell-based
# In short: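 Cytokine protein in supernatant is read by multiplex FACS or Luminex. Tripeptide-treated HaCaT cells or blood-derived human T-cells are stimulated beforehand with PMA/Ionomycin or IFN-γ. The most relevant analytes are IL-1, IL-2, IL-6, IL-12p70, IL-17, IFN-γ and TNF-α, sampled 48 h and 72 h after stimulation.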
# [1] = HaCaT stimulated with IFN-γ, 10^−9M
# [2] = HaCaT stimulated with IFN-γ, 10^−9M, excluded from the final assessment
# [3] = HaCaT stimulated with IFN-γ, substance 10^−9M
# [4] = HaCaT stimulated with PBS, 10^−9M
# [5] = HaCaT stimulated with PBS, 10^−9M, excluded from the final assessment
# [6] = HaCaT stimulated with PBS, substance 10^−9M
# [7] = HaCaT stimulated with PMA/Ionomycin, 10^−9M
# [8] = HaCaT stimulated with PMA/Ionomycin, 10^−9M, excluded from the final assessment
# [9] = HaCaT stimulated with PMA/Ionomycin, substance 10^−9M
substance,measurement,setting,value
"H-Lys-[dP]-Thr-OH [K(D)PT, reference compound]",IL-1 cytokine concentration,[1],257.77 pg/mL
same,IL-2 cytokine concentration,[1],129.65 pg/mL
same,IL-4 cytokine concentration,[1],84.61 pg/mL
same,IL-5 cytokine concentration,[1],166.92 pg/mL
same,IL-6 cytokine concentration,[1],728.31 pg/mL
same,IL-9 cytokine concentration,[1],83.09 pg/mL
same,IL-10 cytokine concentration,[1],73.19 pg/mL
same,IL-13 cytokine concentration,[1],59.62 pg/mL
same,IL-17 cytokine concentration,[1],664.43 pg/mL
same,TNF-α cytokine concentration,[1],100.07 pg/mL
same,IL-12p70 cytokine concentration,[2],0 pg/mL
same,IL-22 cytokine concentration,[2],0 pg/mL
same,IL-1 cytokine concentration,[3],0 pg/mL
same,IL-2 cytokine concentration,[3],131.59 pg/mL
same,IL-4 cytokine concentration,[3],52.4 pg/mL
same,IL-5 cytokine concentration,[3],0 pg/mL
same,IL-6 cytokine concentration,[3],238.12 pg/mL
same,IL-9 cytokine concentration,[3],0 pg/mL
same,IL-10 cytokine concentration,[3],0 pg/mL
same,IL-12 cytokine concentration,[3],0 pg/mL
same,IL-12p70 cytokine concentration,[3],0 pg/mL
same,IL-13 cytokine concentration,[3],0 pg/mL
same,IL-17 cytokine concentration,[3],112.82 pg/mL
same,IL-22 cytokine concentration,[3],0 pg/mL
same,TNF-α cytokine concentration,[3],50.44 pg/mL
same,IFN-γ cytokine concentration,[4],395.55 pg/mL
same,IL-1 cytokine concentration,[4],228.99 pg/mL
same,IL-2 cytokine concentration,[4],201.9 pg/mL
same,IL-4 cytokine concentration,[4],85.48 pg/mL
same,IL-5 cytokine concentration,[4],201.01 pg/mL
same,IL-6 cytokine concentration,[4],72.95 pg/mL
same,IL-9 cytokine concentration,[4],132.74 pg/mL
same,IL-10 cytokine concentration,[4],125.52 pg/mL
same,IL-13 cytokine concentration,[4],60.72 pg/mL
same,IL-17 cytokine concentration,[4],618.22 pg/mL
same,TNF-α cytokine concentration,[4],90.41 pg/mL
same,IL-12p70 cytokine concentration,[5],0 pg/mL
same,IL-22 cytokine concentration,[5],10982.2 pg/mL
same,IFN-γ cytokine concentration,[6],99.65 pg/mL
same,IL-1 cytokine concentration,[6],65.11 pg/mL
same,IL-2 cytokine concentration,[6],0 pg/mL
same,IL-4 cytokine concentration,[6],144.86 pg/mL
same,IL-5 cytokine concentration,[6],0 pg/mL
same,IL-6 cytokine concentration,[6],78.34 pg/mL
same,IL-9 cytokine concentration,[6],5.27 pg/mL
same,IL-10 cytokine concentration,[6],31.43 pg/mL
same,IL-12 cytokine concentration,[6],0 pg/mL
same,IL-12p70 cytokine concentration,[6],0 pg/mL
same,IL-13 cytokine concentration,[6],0 pg/mL
same,IL-17 cytokine concentration,[6],0 pg/mL
same,IL-22 cytokine concentration,[6],0 pg/mL
same,TNF-α cytokine concentration,[6],9.34 pg/mL
same,IFN-γ cytokine concentration,[7],736.13 pg/mL
same,IL-1 cytokine concentration,[7],212.49 pg/mL
same,IL-2 cytokine concentration,[7],179.25 pg/mL
same,IL-4 cytokine concentration,[7],70.92 pg/mL
same,IL-5 cytokine concentration,[7],157.36 pg/mL
same,IL-6 cytokine concentration,[7],130.87 pg/mL
same,IL-9 cytokine concentration,[7],147.79 pg/mL
same,IL-10 cytokine concentration,[7],84.32 pg/mL
same,IL-13 cytokine concentration,[7],62.95 pg/mL
same,IL-17 cytokine concentration,[7],487.56 pg/mL
same,TNF-α cytokine concentration,[7],116.88 pg/mL
same,IL-12p70 cytokine concentration,[8],0 pg/mL
same,IL-22 cytokine concentration,[8],10698.1 pg/mL
same,IFN-γ cytokine concentration,[9],0 pg/mL
same,IL-1 cytokine concentration,[9],0 pg/mL
same,IL-2 cytokine concentration,[9],0 pg/mL
same,IL-4 cytokine concentration,[9],129.6 pg/mL
same,IL-5 cytokine concentration,[9],0 pg/mL
same,IL-6 cytokine concentration,[9],282.85 pg/mL
same,IL-9 cytokine concentration,[9],0 pg/mL
same,IL-10 cytokine concentration,[9],118.77 pg/mL
same,IL-12 cytokine concentration,[9],0 pg/mL
same,IL-12p70 cytokine concentration,[9],0 pg/mL
same,IL-13 cytokine concentration,[9],0 pg/mL
same,IL-17 cytokine concentration,[9],0 pg/mL
same,IL-22 cytokine concentration,[9],0 pg/mL
same,TNF-α cytokine concentration,[9],0 pg/mL
